Data from PubChem BioAssay AID1996.
Values after ≈ are worked out from the molar mass of the structure shown.

Settings: buffer; pH 7.4; 200.0 µM

Row | Structure (SMILES) | solubility kinetic [µg/mL]
1 | O=C(CNCc1ccccc1Cl)Nc1cc(S(=O)(=O)N2CCOCC2)ccc1Cl | 14.5 (≈ 31.6 µM)
2 | C=CCn1cccc(C(=O)Nc2ccc(C)cc2)c1=O | 39.7 (≈ 148 µM)
3 | COC(=O)c1ccccc1S(=O)(=O)N1CCC(C(=O)Nc2ccc(N3CCOCC3)cc2)CC1 | > 73.1
4 | Nc1cccnc1Oc1ccc(F)cc1 | 28.8 (≈ 141 µM)
5 | CC(=O)Nc1ccc(S(=O)(=O)NCCN2CCNC2=O)cc1Cl | > 54.1
6 | Cn1nccc1NC(=O)Nc1ccc(Cl)cc1 | > 37.6
7 | COc1ccc(CC(=S)NCCc2ccccc2)cc1 | 13 (≈ 45.5 µM)
8 | Cc1cccc2cc3ccccc3nc12 | < 0.4
9 | Cc1ccc(OCc2ccccc2Br)c([N+](=O)[O-])n1 | 1.7 (≈ 5.26 µM)
10 | COC(=O)c1ccc(N=C2SCC(=O)N2C)cc1 | > 39.6
11 | CCC(=NCc1cc(OC)cc(OC)c1)c1c(O)[nH]c(=O)[nH]c1=O | 12.5 (≈ 37.5 µM)
12 | O=C(Cc1ccccc1F)NC1CCCc2ccccc21 (configuration not stated) | 16.7 (≈ 58.9 µM)
13 | O=S(=O)(Nc1ccc(Br)cc1)N1CCOCC1 | > 48.2
14 | COc1ccc(CCNC(=O)CN2C(=O)NC3(CCCCC3)C2=O)cc1 | > 53.9
15 | COc1cc2c(cc1OC)-c1cc(Nc3ccccc3)nc(=O)n1CC2 | 7.5 (≈ 21.5 µM)
16 | CSc1ccc(/C=C/C(=O)NC(=O)c2ccccc2O)cc1 | 3.9 (≈ 12.4 µM)
17 | CN(CCOc1ccccc1)CC(O)COCc1ccccc1F (configuration not stated) | 46 (≈ 138 µM)
18 | S=C1NCN(CCc2ccccc2)CN1Cc1ccccc1 | 0.4 (≈ 1.28 µM)
19 | CC12CCC(C/C1=N\OC(=O)c1c(F)cccc1F)C2(C)C (configuration not stated) | 21.5 (≈ 70 µM)
20 | O=C(NCc1cccc(Cl)c1)c1cc(=O)[nH]c2ccccc12 | 1.8 (≈ 5.76 µM)
21 | O=C(CN1C(=O)COc2ccccc21)N1CCOCC1 | > 41.4
22 | COc1ccc(OCCn2c(N)nc3ccccc32)cc1 | > 42.5

Row | Structure (SMILES) | solubility kinetic [µg/mL]
23 | Cc1cccn2c(=O)c(C=O)c(N3CCSCC3)nc12 | 16.2 (≈ 56 µM)
24 | Cc1cc(C(=O)COC(=O)c2cccn2C)c(C)n1Cc1ccco1 | 2.8 (≈ 8.23 µM)
25 | Cc1ccc(Nc2ncnc3sccc23)c(C)c1 | > 38.3
26 | Cc1cccc(N)c1-c1c(C)cccc1N | > 31.8
27 | Cc1cc(-c2cccc(Br)c2)c(C#N)c(N)n1 | 3.1 (≈ 10.8 µM)
28 | CC(C)(C)N(Cc1cc2ccccc2[nH]c1=O)C(=O)c1cccc([N+](=O)[O-])c1 | 1.4 (≈ 3.69 µM)
29 | COC(=O)Cn1c2nc3ccccc3nc2c2cccc(C)c21 | 0.2 (≈ 0.655 µM)
30 | CCNC(=O)COc1ncnc2scc(-c3ccc(F)cc3)c12 | > 49.7
31 | CNS(=O)(=O)c1cccc(C(=O)OCC(=O)c2ccc3[nH]c(=O)[nH]c3c2)c1 | > 58.4
32 | CCC(C)c1ccc(NC(=O)NCc2cccnc2)cc1 (configuration not stated) | 41 (≈ 145 µM)
33 | CCOC(=O)Cn1ccc(NC(=O)COc2ccc(F)cc2)n1 | > 48.2
34 | CCCC(=O)N(Cc1cc(=O)[nH]c2ccccc12)c1ccc(OC)cc1 | > 52.6
35 | COc1ccc(C(=O)O)c(OC)n1 | > 27.5
36 | O=c1cnnc(Nc2ccccc2)[nH]1 | > 28.2
37 | O=C1C2C3C=CC(CC3)C2C(=O)N1c1ccccc1 (configuration not stated) | 25.9 (≈ 102 µM)
38 | CCN1C(=O)CSC1=Nc1ccccc1Cl | 27.9 (≈ 110 µM)
39 | Cc1nc2ccc(NC(=S)N3CCOCC3)cc2nc1C | 39.3 (≈ 130 µM)
40 | COCCSc1ccccc1C(=O)Nc1cc([N+](=O)[O-])ccc1OC | 4.1 (≈ 11.3 µM)
41 | CCN(CC(=O)NCc1cccs1)C(=O)c1ccc(C)o1 | > 46
42 | COC(=O)c1c(C)[nH]c(C(=O)C(C)OC(=O)C2CC2C)c1C (configuration not stated) | > 46.1
43 | COc1ccc(Cl)cc1C(=O)NCC(c1ccco1)N(C)C (configuration not stated) | 45.1 (≈ 140 µM)
44 | O=C(NC1CCSc2ccccc21)c1ccc(F)cc1 (configuration not stated) | 4.9 (≈ 17.1 µM)

Row | Structure (SMILES) | solubility kinetic [µg/mL]
45 | COc1ccccc1C(=O)Nc1cc(-c2ccc(C)cc2)no1 | 0.5 (≈ 1.62 µM)
46 | COc1ccc(-n2ccc3ccccc32)cc1 | < 0.5
47 | Cc1ccc(NC(=O)CN(C)C(=O)c2ccc(Br)o2)cc1 | 14.1 (≈ 40.1 µM)
48 | CC1=C(C)C(=O)N(C(C)CCc2ccccc2)C1=O (configuration not stated) | 4.4 (≈ 17.1 µM)
49 | O=C(N/N=C/c1ccccc1Cl)C1CC1 | > 33.4
50 | O=C(COC(=O)c1c(F)cccc1Cl)NC1CCCC1 | > 45
51 | O=C(CCc1nc(-c2ccc(Cl)cc2)no1)NCC1CCCO1 (configuration not stated) | > 50.4
52 | CN(CC(=O)Nc1ccc(F)cc1)CC(=O)N1CCCC1 | 43 (≈ 147 µM)
53 | O=C(Nc1cccc2cccnc12)c1cccc(Cl)c1 | 1.5 (≈ 5.31 µM)
54 | O=S(=O)(c1cccs1)N1CCN(c2ccccc2)CC1 | 1.4 (≈ 4.54 µM)
55 | O=C(CN1C(=O)C(=O)N(C2CCCC2)C1=O)NCCc1ccc(F)cc1 | > 54.2
56 | CSCCC(=O)N1CCCC(N(C)CCc2ccccc2)C1 (configuration not stated) | 41.7 (≈ 130 µM)
57 | COc1cccc(NC(=O)COc2ccccc2)c1 | > 38.6
58 | Cc1ccc(NC(=O)c2cc3ccccc3o2)cc1 | 1.5 (≈ 5.97 µM)
59 | COc1ccc(NC(=O)c2cc(F)cc(F)c2)cc1S(=O)(=O)N1CCCCC1 | 5.1 (≈ 12.4 µM)
60 | O=C(NCc1ccco1)C1Cc2cc(Cl)ccc2O1 (configuration not stated) | > 41.7
61 | COc1ccc(-c2cc(C(=O)NN3CCOCC3)c3ccccc3n2)cc1OC | > 59
62 | O=C(COc1ccccc1/C=C1\SC(=S)NC1=O)Nc1ccc(F)cc1 | 3 (≈ 7.72 µM)
63 | O=C(NC1CCCC(C(F)(F)F)C1)c1ccc([N+](=O)[O-])o1 (configuration not stated) | > 45.9
64 | CN(C)S(=O)(=O)c1ccc(C(=O)/C=C/c2cccnc2)cc1 | 3.3 (≈ 10.4 µM)
65 | O=C(COc1ccc(Cl)cc1)Nc1nnc(C2=COCCO2)o1 | > 50.7
66 | CNC(=O)Nc1cccc2cccnc12 | > 30.2

Row | Structure (SMILES) | solubility kinetic [µg/mL]
67 | Cc1ccc(C(=O)NCCCNC(=O)c2ccccc2C)cn1 | > 46.7
68 | COc1cccc(C=O)c1OCCCOc1cccc2cccnc12 | 34.9 (≈ 103 µM)
69 | COc1ccccc1N(CC1CO1)S(=O)(=O)c1ccccc1 (configuration not stated) | > 47.9
70 | O=C(CSCc1c(Cl)cccc1Cl)Nc1cccnc1 | 35.9 (≈ 110 µM)
71 | N#Cc1c(-c2ccccc2)cc(-c2ccccc2)nc1SCCC(=O)O | > 54.1
72 | Nc1nc(Nc2ccccc2)nc(NCCO)c1[N+](=O)[O-] | 38 (≈ 131 µM)
73 | O=C1CN(C(=O)c2ccccc2Cl)c2ccccc2N1 | > 43
74 | O=S(=O)(NC1C2CC3CC(C2)CC1C3)c1ccc(F)cc1 (configuration not stated) | 23 (≈ 74.3 µM)
75 | CCC(=NCCc1ccc(OC)c(OC)c1)C1=C(O)CC(C)(C)CC1=O | 47.3 (≈ 132 µM)
76 | COc1cccc(C(C)NC(=O)C2CCCC2)c1 (configuration not stated) | > 37.1
77 | CC(C)N(CC#CC(O)(c1ccccc1)c1ccccc1)C(C)C | > 48.2
78 | Cc1ccc(NC(=O)CCc2ccc(S(=O)(=O)N3CCOCC3)cc2)c(Cl)c1 | 6.1 (≈ 14.4 µM)
79 | O=C(NCCc1ccc(Cl)cc1)c1ccc2c(c1)OCCO2 | 0.8 (≈ 2.52 µM)
80 | Cc1nc(C(F)(F)F)ccc1C(=O)Nc1ccccc1F | > 44.7
81 | O=c1[nH]c2ccccc2n1C1=CCNCC1 | > 32.3
82 | CCOc1ccc(CCNC(=O)COC(=O)c2ccc[nH]c2=O)cc1OCC | > 58.3
83 | O=c1cc(-c2ccncc2)oc2c1ccc1ccccc12 | 0.7 (≈ 2.56 µM)
84 | Cc1c(NC(=O)COC(=O)c2cccn2C)c(=O)n(-c2ccccc2)n1C | > 55.3
85 | O=C(NC1CCCc2ccccc21)c1ccccc1Cl (configuration not stated) | 39.6 (≈ 139 µM)
86 | COc1ccccc1NC(=O)Nc1nc2ccc(S(N)(=O)=O)cc2s1 | 1.6 (≈ 4.23 µM)
87 | COc1ccc(N2CCN(C(=S)NCc3ccc(C)cc3)CC2)cc1 | < 0.3
